Test results published in patent US20150181873A1, “HERBICIDE-RESISTANT SUNFLOWER PLANTS, POLYNUCLEOTIDES ENCODING HERBICIDE=RESISTANT ACETO HYDROXY ACID SYNTHASE LARGE SUBUNIT PROTEINS, AND METHODS OF USE” (NIDERA S.A., priority 2013, published 2015).

Columns and labels:
Assay type in all cases: in vivo, Helianthus annuus
[1] = system: sunflower hybrid TH1 (A205V); experiment: Greenhouse imazapir dose response, TH1; details: 14 DAT
Protocol: (§1) A greenhouse study was conducted to quantify and contrast the imazapir sensivity of the mutants A122T and A205V in different genetic backgrounds at the whole plant level in sunflower. Seeds of the different sunflower lines that were used in this study were obtained under field conditions.
(§2) Seeds were sown in Petri dishes and, after germination, plantlets were transplanted to pots of 10 cm of diameter in a potting media consisting of equal parts of vermiculite, soil and sand. Plants were grown in a greenhouse under natural light conditions supplemented with 400 W sodium halide lamps to provide a 16 hrs daylength. Day/night temperatures were 25 and 20° C., respectively. At the V2 stage 10 plants of each genotype were randomly assigned to each treatment consisting of […] imazapir doses (0, 40, 80, 160, 240, 320, 400 and 480 g ai/ha), and a zero-time biomass determination. Experiment was arranged as a randomized block design with a full factorial (sunflower line×treatment) arrangement of treatments and 10 replications.
(§3) On the day of herbicide application ten plants of each genotype were cut at the cotyledonal node and dried at 60° C. for 48 hrs zero-time for dried weight determination. […] Height was determined as the distance between the cotyledonal node and the apex of each plant. For root biomass determination, each plant was taken from the pot and the potting media was washed out from the roots. Above ground biomass data from each line were converted to biomass accumulation after application by subtracting the appropriate average zero-time biomass from each sample. Dry biomass data were converted to percentages of the untreated control plants within each line to allow direct comparisons between groups.

[2] = system: sunflower hybrid TH9 (A205V); experiment: Greenhouse imazapir dose response, TH9; details: 14 DAT
Protocol: as §1, §2, §3

Sunflower line S4897 = experiment: Greenhouse spray injury rating, line S4897; details: imazapyr 360 gm ai/ha (column 360/240)
Excerpt: (§4) Sunflower lines S4897, Clearfield® sunflower varieties A, B, C and a conventional non-Clearfield variety were sprayed with three rates of imazamox (Raptor™), 100, 200 and 300 gm ai/ha plus 0.5% Sun It II and two rates of imazapyr (Arsenal™) 160 and 360 gm ai/ha plus 0.5% Sun It II when the plants were at the two to three leaf stage. Ratings were taken at 14 days after application (DAT) for injury. Injury was rated on a scale from 0 to 9 where 0=no injury to 9=dead plant. Twelve plants were sprayed per herbicide/rate treatment. Statistical analysis was conducted with STATGRAPHICS Plus 5.0 by using ANOVA and LSD procedures.
(§5) After plants were sprayed, it was realized that a height difference between S4897 and other sunflower varieties would have impacted the actual herbicide dose that was delivered. The spray boom height had been calibrated against S4897 and since the other varieties were taller and closer to the boom they would have received a greater dose of herbicide. Rates were recalibrated for the other varieties to determine the approximate dose they would have received. Assessments were made as presented in Table 2 since it was not possible to make a direct rate comparison due to the effect of the height. For example injury scores were compare for S4897 treated imazamox rate 100 gm ai/ha to the other varieties treated at 75 gm ai/ha. The treatment dose of 300 gm ai/ha for line S4897 was equivalent to the treatment of 200 gm ai/ha for the other varieties, which […].

[3] = system: sunflower line GM40 (A122T); experiment: Greenhouse imazapir dose response, GM40; details: 14 DAT
Protocol: as §1, §2, §3

[4] = system: Clearfield sunflower variety C; experiment: Greenhouse spray injury rating, Clearfield variety C; details: imazapyr 240 gm ai/ha, scale 0-9
Excerpt: as §4, §5

## CC(C)C1(C)N=C(c2ncccc2C(=O)O)NC1=O (centres unmarked) [Imazapyr, imazapyr]
[1]; 0.5x (40 g ai/ha)
  Phytotoxicity Index: 0
  biomass accumulation, % of untreated: 95.0%
  plant height, % of untreated: 99.5%
  root dry weight, % of untreated: 79.4%
[1]; 1x (80 g ai/ha)
  Phytotoxicity Index: 0
  biomass accumulation, % of untreated: 89.6%
  plant height, % of untreated: 99.5%
  root dry weight, % of untreated: 70.7%
[1]; 2x (160 g ai/ha)
  Phytotoxicity Index: 1.8
  biomass accumulation, % of untreated: 75.5%
  plant height, % of untreated: 78.6%
  root dry weight, % of untreated: 69.6%
[1]; 3x (240 g ai/ha)
  Phytotoxicity Index: 6.4
  biomass accumulation, % of untreated: 60.4%
  plant height, % of untreated: 48.4%
  root dry weight, % of untreated: 42.3%
[1]; 4x (320 g ai/ha)
  Phytotoxicity Index: 8.0
  biomass accumulation, % of untreated: 46.5%
  plant height, % of untreated: 28.9%
  root dry weight, % of untreated: 38.6%
[1]; 5x (400 g ai/ha)
  Phytotoxicity Index: 8.9
  biomass accumulation, % of untreated: 38.9%
  plant height, % of untreated: 25.3%
  root dry weight, % of untreated: 34.7%
[1]; 6x (480 g ai/ha)
  Phytotoxicity Index: 9.0
  biomass accumulation, % of untreated: 33.9%
  plant height, % of untreated: 27.1%
  root dry weight, % of untreated: 23.1%
[2]; 0.5x (40 g ai/ha)
  Phytotoxicity Index: 0
  biomass accumulation, % of untreated: 91.7%
  plant height, % of untreated: 100.0%
  root dry weight, % of untreated: 81.5%
[2]; 1x (80 g ai/ha)
  Phytotoxicity Index: 0
  biomass accumulation, % of untreated: 81.7%
  plant height, % of untreated: 100.0%
  root dry weight, % of untreated: 84.9%
[2]; 2x (160 g ai/ha)
  Phytotoxicity Index: 1.6
  biomass accumulation, % of untreated: 54.7%
  plant height, % of untreated: 78.9%
  root dry weight, % of untreated: 58.8%
[2]; 3x (240 g ai/ha)
  Phytotoxicity Index: 5.1
  biomass accumulation, % of untreated: 35.7%
  plant height, % of untreated: 50.0%
  root dry weight, % of untreated: 34.1%
[2]; 4x (320 g ai/ha)
  Phytotoxicity Index: 8.4
  biomass accumulation, % of untreated: 25.3%
  plant height, % of untreated: 38.1%
  root dry weight, % of untreated: 27.3%
[2]; 5x (400 g ai/ha)
  Phytotoxicity Index: 8.9
  biomass accumulation, % of untreated: 19.8%
  plant height, % of untreated: 31.8%
  root dry weight, % of untreated: 29.9%
[2]; 6x (480 g ai/ha)
  Phytotoxicity Index: 8.9
  biomass accumulation, % of untreated: 19.5%
  plant height, % of untreated: 34.7%
  root dry weight, % of untreated: 22.1%
Sunflower line S4897; scale 0-9
  Injury at 14 DAT: 0.8 a
Sunflower line S4897; scale 0-9, listed as imazapyr
  Injury at 14 DAT: very little injury
[3]; 0.5x (40 g ai/ha)
  biomass accumulation, % of untreated: 96.5%
  plant height, % of untreated: 99.6%
  root dry weight, % of untreated: 100%
[3]; 1x (80 g ai/ha)
  biomass accumulation, % of untreated: 94.1%
  plant height, % of untreated: 97.4%
  root dry weight, % of untreated: 100%
[3]; 2x (160 g ai/ha)
  biomass accumulation, % of untreated: 97.6%
  plant height, % of untreated: 95.2%
  root dry weight, % of untreated: 100%
[3]; 3x (240 g ai/ha)
  biomass accumulation, % of untreated: 95.8%
  plant height, % of untreated: 93.0%
  root dry weight, % of untreated: 92.2%
[3]; 4x (320 g ai/ha)
  biomass accumulation, % of untreated: 88.3%
  plant height, % of untreated: 93.0%
  root dry weight, % of untreated: 96.1%
[3]; 5x (400 g ai/ha)
  biomass accumulation, % of untreated: 85.6%
  plant height, % of untreated: 93.9%
  root dry weight, % of untreated: 84.2%
[3]; 6x (480 g ai/ha)
  biomass accumulation, % of untreated: 76.8%
  plant height, % of untreated: 84.3%
  root dry weight, % of untreated: 74.3%
[4]
  Injury at 14 DAT: 4.9 c
